Results: patent publication US6498156B2, “Diphenylazetidinone derivatives, process for their preparation, medicaments comprising these compounds and their use” (Aventis Pharma Deutschland GmbH, priority 2000, dated 2002)

Experiments:
[1] = Bioabsorption in the Caco cell model; type: in vitro ADME; settings: human, Caco-2; Caco cell model; read-out: Apparent partition coefficient Papp (according to Lit. Hilgers)
Text: (§1) The bioabsorption of the compounds of the formula I was examined using the Caco cell model (A. R. Hilgers et al., Caco-2 cell monolayers as a model for drug transport across the intestinal mucosa, Pharm. Res. 1990, 7, 902).
(§2) From the measured data, it can be seen that the bioabsorption of the compounds of the formula I according to the invention is considerably lower than that of compounds described in the prior art (reference structure): […]

Caco-2 cell monolayers = test: Bioabsorption in the Caco cell model; type: in vitro ADME; settings: estimated from Caco cell model data
Text: as §1, §2

[2] = tested on: Cholesterol absorption (uptake of 14C-cholesterol by the liver); test: Cholesterol absorption test: uptake of 14C-cholesterol by the liver after peroral test meal; type: in vivo, NMRI mice; settings: dose at which the uptake of 14C-cholesterol by the liver is halved (50%) vs control group, mouse
Text: Effect on Cholesterol Absorption +^3H-taurocholic Acid Excretion Using Fecal Excrement of Mice, Rats or Hamsters
NMRI mice, Wistar rats, or Golden Syrian hamsters (in groups of n=4-6) are kept in metabolic cages, where they are fed with a standard diet (Altromin, Lage (Lippe)). The afternoon prior to the administration of the radioactive tracers (^14C-cholesterol), the feed is removed and the animals are adapted to grates.
Additionally, the animals are labeled s.c. with ^3H-TCA (taurocholic acid) (for example 1 μCi/mouse up to 5 μCi/rat) 24 hours prior to the peroral administration of the test meal (^14C-cholesterol in Intralipid® 20, Pharmacia-Upjohn).
Cholesterol absorption test: 0.25 ml/mouse Intralipid ® 20 (Pharmacia-Upjohn) ((Spiked with 0.25 μCi of ^14C-cholesterol in 0.1 mg of cholesterol) are administered perorally by gavage.
Test substances were prepared separately in 0.5% methylcellulose (Sigma)/5% Solutol (BASF, Ludwigshafen) or a suitable vehicle.
The administration volume of the test substance is 0.5 ml/mouse. The test substance is administered immediately prior to the test meal (Intralipid labeled with ^14C-cholesterol) (cholesterol absorption test).
The feces are collected over a period of 24 h: fecal elimination of ^14C-cholesterol and ^3H-taurocholic acid (TCA) is determined after 24 hours.
The livers are removed and homogenized, and aliquots are incinerated in an oximate (Model 307, Packard) to determine the amount of ^14C-cholesterol which had been taken up/absorbed.
The amount of ^14C-cholesterol taken up by the liver is based on the administered dose. The ED50 values are interpolated from a dose-effect curve as the dose at of which the uptake of ^14C-cholesterol by the liver is halved (50%), based on a control group.

SMILES	melting point	ED50 (liver) [2]	also measured
CCCCC1(CC)CS(=O)(=O)c2ccc(N(C)C)cc2C(c2cccc(NC(=O)CCCCCCCCCCC(=O)NCc3cccc(C4C(CCC(O)c5ccc(F)cc5)C(=O)N4c4ccc(F)cc4)c3)c2)[C@H]1O.O=C(O)C(F)(F)F (stereo in doubt) [Example XII, (3-Butyl-3-ethyl-5-{3-[11-(3-{1-(4-fluorophenyl)-3-[3-(4-fluorophenyl)-3-hydroxypropyl]-4-oxoazetidin-2-yl}benzylcarbamoyl)undecanoylamino]phenyl}-4-hydroxy-1,1-dioxo-2,3,4,5-tetrahydro-1H-benzo[b]thiepin-7-yl)dimethylammonium Trifluoro-acetate]	–	–	Papp [1]: 0.00367 ×10⁻⁶ cm/s; Estimated human bioabsorption (Caco-2 cell monolayers): <1%
CCCCC1(CC)CS(=O)(=O)c2ccc(N(C)C)cc2C(c2cccc(NC(=O)CCCCC(=O)NCc3ccc(C4C(CCC(O)c5ccc(F)cc5)C(=O)N4c4ccc(F)cc4)cc3)c2)C1O (stereo not drawn) [III, N-[3-(3-Butyl-7-dimethylamino-3-ethyl-4-hydroxy-1,1-dioxo-2,3,4,5-tetrahydro-1H-benzo[b]thiepin-5-yl)phenyl]-N′-4-{1-(4-fluorophenyl)-3-[3-(4-fluorophenyl)-3-hydroxypropyl]-4-oxo-azetidin-2-yl}benzyl-hexanediamide]	–	0.03 mg/mouse	–
O=C1[C@H](CC[C@H](O)c2ccc(F)cc2)[C@@H](c2ccc(O)cc2)N1c1ccc(F)cc1 [Reference structure, Ezetimibe, reference compound]	–	–	Papp [1]: 4.88 ×10⁻⁶ cm/s; Estimated human bioabsorption (Caco-2 cell monolayers): 100%
CCCCC1(CC)CS(=O)(=O)c2ccc(N(C)C)cc2C(c2cccc(NC(=O)COCCOCC(=O)NCc3cccc(C4C(CCC(O)c5ccc(F)cc5)C(=O)N4c4ccc(F)cc4)c3)c2)C1O.O=C(O)C(F)(F)F (stereo not drawn) [VIII, (3-Butyl-3-ethyl-5-[3-(2-{2-[(3-{1-(4-fluorophenyl)-3-[3-(4-fluorophenyl)-3-hydroxypropyl]-4-oxoazetidin-2-yl}benzylcarbamoyl)methoxy]ethoxy}acetylamino)phenyl]-4-hydroxy-1,1-dioxo-2,3,4,5-tetrahydro-1H-benzo[b]thiepin-7-yl)dimethylammonium Trifluoroacetate]	–	0.003 mg/mouse	–
CCCCC1(CC)CS(=O)(=O)c2ccc(N(C)C)cc2C(c2cccc(NC(=O)CCCCCCCNCc3ccc(C4C(CCC(O)c5ccc(F)cc5)C(=O)N4c4ccc(F)cc4)cc3)c2)C1O.O=C(O)C(F)(F)F (stereo not drawn) [XXV]	–	0.01 mg/mouse	–
CCCCC1(CC)CS(=O)(=O)c2ccc(N(C)C)cc2C(c2cccc(NC(=O)COCCOCCOCC(=O)NCc3ccc(N4C(=O)C(CCC(O)c5ccc(F)cc5)C4c4ccc(OC)cc4)cc3)c2)C1O (stereo not drawn) [XXXI, N-[3-(3-Butyl-7-dimethylamino-3-ethyl-4-hydroxy-1,1-dioxo-2,3,4,5-tetrahydro-1H-benzo[b]thiepin-5-yl)phenyl]-2-{2-[2-({4-[3-[3-(4-fluorophenyl)-3-hydroxypropyl]-2-(4-methoxyphenyl)-4-oxoazetidin-1-yl]benzylcarbamoyl}methoxy)ethoxy]ethoxy}acetamide]	–	0.1 mg/mouse	–

Second part, led by results:

melting point	SMILES	ED50 (liver) [2]	also measured
150 °C	CCCCC1(CC)CS(=O)(=O)c2ccc(N(C)C)cc2C(c2cccc(NC(=O)CCCCC(=O)NCc3ccc(C4C(CCC(O)c5ccccc5)C(=O)N4c4ccc(F)cc4)cc3)c2)C1O (stereo not drawn) [II, N-[3-(3-Butyl-7-dimethylamino-3-ethyl-4-hydroxy-1,1-dioxo-2,3,4,5-tetrahydro-1H-benzo[b]thiepin-5-yl)phenyl]-N′-4-[1-(4-fluorophenyl)-3-(3-hydroxy-3-phenylpropyl)-4-oxoazetidin-2-yl]benzyl-hexanediamide]	0.01 mg/mouse	–
120 °C	CCCCC1(CC)CS(=O)(=O)c2ccc(N(C)C)cc2C(c2cccc(NC(=O)COCCOCCOCC(=O)NCc3ccc(C4C(CCC(O)c5ccccc5)C(=O)N4c4ccc(F)cc4)cc3)c2)C1O (stereo not drawn) [VI, [2-(2-{[3-(3-Butyl-7-dimethylamino-3-ethyl-4-hydroxy-1,1-dioxo-2,3,4,5-tetrahydro-1H-benzo[b]thiepin-5-yl)-phenylcarbamoyl]methoxy}ethoxy)ethoxy]-[N-{4-[1-(4-fluorophenyl)-3-(3-hydroxy-3-phenylpropyl)-4-oxoazetidin-2-yl]benzyl}]acetamide]	–	–
116 to 125 °C	CCCCC1(CC)CS(=O)(=O)c2ccc(N(C)C)cc2C(c2cccc(NC(=O)COCCOCC(=O)NCc3ccc(N4C(=O)C(CCC(O)c5ccc(F)cc5)C4c4ccc(OC)cc4)cc3)c2)C1O (stereo not drawn) [XXX, 2-(2-{[3-(3-Butyl-7-dimethylamino-3-ethyl-4-hydroxy-1,1-dioxo-2,3,4,5-tetrahydro-1H-benzo[b]thiepin-5-yl)phenylcarbamoyl]methoxy}ethoxy)-N-{4-[3-[3-(4-fluorophenyl)-3-hydroxypropyl]-2-(4-methoxyphenyl)-4-oxoazetidin-1-yl]benzyl}acetamide]	–	–
